Experimental data published in paper PMC9515952, “Tentative exploration of pharmacodynamic substances: Pharmacological effects, chemical compositions, and multi-components pharmacokinetic characteristics of ESZWD in CHF-HKYd rats” (Frontiers in Cardiovascular Medicine, 2022).

Experiments:
[1] = Pharmacokinetics of four components of ESZWD in CHF-HKYd rat serum by UPLC-MS/MS; type: in vivo; details: CHF-HKYd rat serum after oral administration of ESZWD, mean ± SD, n = 6
Procedure: (§1) All rats were randomly divided into control group, model group, ESZWD low-dose (3.96 g/kg), medium-dose (7.92 g/kg), high-dose (15.84 g/kg) groups, and positive control group (benazepril, 0.5 mg/kg), with six rats in each group. The CHF-HKYd was established after 1 week of feeding. ESZWD and benazepril were administered by gavage separately for 4 weeks after successful modeling, except for the control group. Blood was collected for 5, 10, 20, 30, 45 min, 1, 2, 4, 6, 8, 12, and 24 h, standing for 2 h and centrifuged at 4°C, 3,500 rpm for 10 min, the supernatant was retained. The state of rats was observed and the urine volume at 24 h was measured. The structure and function of rat heart were evaluated by doppler ultrasonography. Serum biomarkers including myocardial injury indicators NT-proBNP, angiotensinII (AngII), aldosterone (ALD), reactive oxygen species (ROS), superoxide dismutase (SOD), malondialdehyde (MDA), and tumor necrosis factor α (TNF-α) and interleukin 6 (IL-6) were detected by ELISA.
Chromatographic analysis was performed using ACQUITY UPLC BEH C18 column (2.1 × 50 mm, […]), the mobile phase was acetonitrile (A) 0.1% formic acid water (B), the flow rate was set as 0.2 mL·min^−1, the column temperature was 35°C, the injection volume was 2 μL, and the gradient conditions were as follows: 0–8 min: 6–11%A, 8–23 min: 11–19%A, 23–45 min: 19–38%A, 45–55 min: 38–47%A, 55–55.1 min: 47–52%A, 55.1–65 min: 52–90%A, 65–66 min: 90–6%A of UPLC-Q-TOF/MS analysis and 0–3 min: 8–10%A, 3–3.5 min: 10–70% A, 3.5–5: 70–80%A, 5–5.1 min: 80–8% A, 5.1–6 min: 8% A of UPLC-MS/MS.
Mass spectrometric detection of UPLC-MS/MS analysis was carried out on electrospray ionization (ESI) ion source, multiple reaction monitoring (MRM) mode, ion spray voltage of 5,500 V, the curtain gas and collision gas were 40 and 9 kPa, respectively, declustering potential (DP) and collision voltage (CE) are shown in Table 1.

[2] = Stability of four compounds in rat serum (UPLC-MS/MS method validation); details: n = 5; for Stability, Room temperature, Mean ± SD: 4 h at room temperature (25°C); for Stability, Automatic sampler, Mean ± SD: 8 h in the automatic sampler; for Stability, Long-term freeze, Mean ± SD: 7 d at −80°C; for Stability, Multigelation, Mean ± SD: three freeze and thaw cycles
Procedure: The stability of all probe drugs was evaluated by LQC and HQC samples under different experimental conditions, including short-term stability [4 h at room temperature (25°C), 8 h in the automatic sampler, and three freeze and thaw cycles, respectively] and long-term stability (7 d at −80°C).

NT-proBNP = experiment: Serum NT-proBNP by ELISA in CHF-HKYd rats; type: in vivo, rat; details: benazepril 0.5 mg/kg, gavage 4 weeks
Procedure: (§2) SPF SD male rats were anesthetized by intraperitoneal injection of 25% urethane (1,000 mg/kg). Cut off the skin tissue for about 1 cm, blunt away from bilateral neck muscles, separate and excise the bilateral thyroid glands, and the parathyroid glands were retained. The mixture of noradrenaline and normal saline (1:4,000) was used to stop intraoperative bleeding during the operation, the muscle and skin were sutured and 0.1% calcium gluconate solution was given postoperatively. On the 10th day after thyroidectomy, the rats were intraperitoneally injected with 0.02% doxorubicin hydrochloride (1 mL/100 g), twice a week for 3 weeks.
The general state of rats was observed: the basic criteria for the symptoms of HKYd were dark purple coating on the tongue, asthma, edema, fear of cold, emaciation, loose stools, sleepiness, hypotrichosis, etc. The urine volume of rats was measured: 1 week after the last injection, 24 h urine volume of rats in the normal and model group were collected in the metabolic cage, and the urine samples were frozen at −80°C. Evaluation of cardiac function in rats by Doppler echocardiography: After urine collection, the rats were anesthetized and fixed in the supine position. The precardiac area of the rats was depilated and the coupling agent was applied, a frequency of 12 MHz. […] The contents of serum NT-proBNP, T3, and T4 were detected by ELISA. […]

AngII = experiment: Serum angiotensinII (AngII) by ELISA in CHF-HKYd rats; type: in vivo, rat; details: benazepril 0.5 mg/kg, gavage 4 weeks
Procedure: as §2
as §1, with “ESZWD and benazepril were administered by gavage separately for 4 weeks after successful modeling, except for the control group. Blood was collected for 5, 10, 20, 30, 45 min, 1, 2, 4, 6, 8, 12, and 24 h, standing for 2 h and centrifuged at 4°C, 3,500 rpm for 10 min, the supernatant was retained.” left out

IL-6 = experiment: Serum IL-6 by ELISA in CHF-HKYd rats; type: in vivo, rat; details: benazepril 0.5 mg/kg, gavage 4 weeks
Procedure: as §2
as §1, with “ESZWD and benazepril were administered by gavage separately for 4 weeks after successful modeling, except for the control group. Blood was collected for 5, 10, 20, 30, 45 min, 1, 2, 4, 6, 8, 12, and 24 h, standing for 2 h and centrifuged at 4°C, 3,500 rpm for 10 min, the supernatant was retained.” left out

TNF-α = experiment: Serum TNF-α by ELISA in CHF-HKYd rats; type: in vivo, rat; details: benazepril 0.5 mg/kg, gavage 4 weeks
Procedure: as §2
as §1, with “ESZWD and benazepril were administered by gavage separately for 4 weeks after successful modeling, except for the control group. Blood was collected for 5, 10, 20, 30, 45 min, 1, 2, 4, 6, 8, 12, and 24 h, standing for 2 h and centrifuged at 4°C, 3,500 rpm for 10 min, the supernatant was retained.” left out

ALD = experiment: Serum aldosterone (ALD) by ELISA in CHF-HKYd rats; type: in vivo, rat; details: benazepril 0.5 mg/kg, gavage 4 weeks
Procedure: as §2
as §1, with “ESZWD and benazepril were administered by gavage separately for 4 weeks after successful modeling, except for the control group. Blood was collected for 5, 10, 20, 30, 45 min, 1, 2, 4, 6, 8, 12, and 24 h, standing for 2 h and centrifuged at 4°C, 3,500 rpm for 10 min, the supernatant was retained.” left out

MDA = experiment: Serum malondialdehyde (MDA) by ELISA in CHF-HKYd rats; type: in vivo, rat; details: benazepril 0.5 mg/kg, gavage 4 weeks
Procedure: as §2
as §1, with “ESZWD and benazepril were administered by gavage separately for 4 weeks after successful modeling, except for the control group. Blood was collected for 5, 10, 20, 30, 45 min, 1, 2, 4, 6, 8, 12, and 24 h, standing for 2 h and centrifuged at 4°C, 3,500 rpm for 10 min, the supernatant was retained.” left out

CHF-HKYd rats = experiment: Doppler echocardiography of cardiac function in CHF-HKYd rats; type: in vivo, rat; details: benazepril 0.5 mg/kg by gavage for 4 weeks (positive control)
Procedure: as §2
The general state of rats was observed: the basic criteria for the symptoms of HKYd were dark purple coating on the tongue, asthma, edema, fear of cold, emaciation, loose stools, sleepiness, hypotrichosis, etc. The urine volume of rats was measured: 1 week after the last injection, 24 h urine volume of rats in the normal and model group were collected in the metabolic cage, and the urine samples were frozen at −80°C. Evaluation of cardiac function in rats by Doppler echocardiography: After urine collection, the rats were anesthetized and fixed in the supine position. The precardiac area of the rats was depilated and the coupling agent was applied, a frequency of 12 MHz. M-mode ultrasound and pulsed Doppler ultrasound were used to detect diastolic interventricular septum (IVSD), left ventricular internal diastolic diameter (LVIDd), left ventricular posterior wall diastolic diameter (LVPWd), systolic interventricular septum (IVSs) and left ventricular internal systolic diameter (LVIDs), left ventricular posterior wall systolic diameter (LVPWs), stroke volume (SV), left ventricular ejection fraction (LVEF), left ventricular short-axis systolic fraction (FS), and the ratio of peak flow velocity between early and late mitral valve diastole (E/A) through the left ventricular macropinacoid of left sternal bone and four-chamber view. Neuroendocrine factor detection: After the echocardiography, 1 mL of blood was taken from the canthus of rats in each group, blood was placed in the water at 37°C for 1.5 h, centrifuged to obtain serum (3,000 rpm, 10 min), frozen at −80°C. The contents of serum NT-proBNP, T3, and T4 were detected by ELISA.
as §1

ROS = experiment: Serum reactive oxygen species (ROS) by ELISA in CHF-HKYd rats; type: in vivo, rat; details: benazepril 0.5 mg/kg, gavage 4 weeks
Procedure: as §2
as §1, with “ESZWD and benazepril were administered by gavage separately for 4 weeks after successful modeling, except for the control group. Blood was collected for 5, 10, 20, 30, 45 min, 1, 2, 4, 6, 8, 12, and 24 h, standing for 2 h and centrifuged at 4°C, 3,500 rpm for 10 min, the supernatant was retained.” left out

[3] = added 20 ng/mL (salsolinol) or 1 ng/mL (others)
[4] = added 100 ng/mL (salsolinol) or 10 ng/mL (others)
[5] = added 750 ng/mL (salsolinol) or 150 ng/mL (others)

CCN1C[C@]2(COC)[C@H](O)C[C@H](OC)[C@@]34[C@@H]5C[C@@]6(O)[C@H](OC(=O)c7ccccc7)[C@@H]5[C@@](OC(C)=O)([C@@H]([C@H](OC)[C@H]23)[C@@H]14)[C@@H](O)[C@@H]6OC [Aconitine]
V/F [1]: 2679 ± 1574 L/kg
AUC(0-inf) ([1]; Sprague-Dawley (SD), in vivo): 50.1 ± 16 ng·h/mL
AUC(0-t) ([1]; Sprague-Dawley (SD), in vivo): 48.9 ± 16.4 ng·h/mL
half-life ([1]; Sprague-Dawley (SD), in vivo): 4.24 ± 1.83 h
CL/F ([1]; Sprague-Dawley (SD), in vivo, read-out: CL/F (converted)): 425 L/h/kg
Cmax ([1]; Sprague-Dawley (SD), in vivo, read-out: Cmax): 8.96 ± 2.22 ng/mL
Tmax ([1]; Sprague-Dawley (SD), in vivo, read-out: Tmax): 0.75 h
half-life ([1]; Sprague-Dawley, in vivo): ~4 h
Stability, Room temperature, Mean ± SD [2, 3]: 1.049 ± 0.05 ng/mL
Stability, Room temperature, Mean ± SD [2, 4]: 9.558 ± 0.29 ng/mL
Stability, Room temperature, Mean ± SD [2, 5]: 163.7 ± 5.25 ng/mL
Stability, Automatic sampler, Mean ± SD [2, 3]: 1.087 ± 0.12 ng/mL
Stability, Automatic sampler, Mean ± SD [2, 4]: 9.053 ± 0.24 ng/mL
Stability, Automatic sampler, Mean ± SD [2, 5]: 162.6 ± 9.72 ng/mL
Stability, Long-term freeze, Mean ± SD [2, 3]: 1.082 ± 0.05 ng/mL
Stability, Long-term freeze, Mean ± SD [2, 4]: 10.05 ± 0.97 ng/mL
Stability, Long-term freeze, Mean ± SD [2, 5]: 157.4 ± 3.86 ng/mL
Stability, Multigelation, Mean ± SD [2, 3]: 1.125 ± 0.11 ng/mL
Stability, Multigelation, Mean ± SD [2, 4]: 9.042 ± 0.48 ng/mL
Stability, Multigelation, Mean ± SD [2, 5]: 156.9 ± 8.39 ng/mL

CCOC(=O)[C@H](CCc1ccccc1)N[C@H]1CCc2ccccc2N(CC(=O)O)C1=O [Benazepril, benazepril]
serum NT-proBNP level vs model group (NT-proBNP): significantly reduced
serum AngII level vs model group (AngII): significantly reduced
serum IL-6 level vs model group (IL-6): significantly reduced
serum TNF-α level vs model group (TNF-α): significantly reduced
serum ALD level vs model group (ALD): significantly reduced
serum MDA level vs model group (MDA): significantly reduce
E/A (CHF-HKYd rats): 1.794 ± 0.28
FS (CHF-HKYd rats): 60.31 ± 8.10 %
IVSd (CHF-HKYd rats): 1.800 ± 0.62 mm
IVSs (CHF-HKYd rats): 3.425 ± 0.88 mm
LVEF (CHF-HKYd rats): 92.30 ± 4.09 %
LVIDd (CHF-HKYd rats): 5.950 ± 1.28 mm
LVIDs (CHF-HKYd rats): 2.350 ± 0.72 mm
LVPWd (CHF-HKYd rats): 1.900 ± 0.67 mm
LVPWs (CHF-HKYd rats): 3.525 ± 0.79 mm
SV (CHF-HKYd rats): 0.4950 ± 0.25 mL
serum ROS level vs model group (ROS): significantly reduce
